The values below come from patent US20230159931A1, “TARGETING THE PALMOTYLATION/DEPALMOTYLATION CYCLE TO TREAT INFLAMMATORY DISEASES” (CORNELL UNIVERSITY, priority 2020, published 2023).

The structures appear in SMILES notation.

In data set [1] the test system is STAT3 target genes (RORC and CCND1). As to the kind of experiment: Expression of STAT3 target genes under TH17 differentiation conditions (qPCR). Format: cell-based. The conditions noted are these: mouse spleen cells. Here is the method:
Splenocytes were isolated from mice by classic methods. In brief, the excised spleen was sliced into small pieces and placed onto a strainer (352350, Thermo Fisher) attached to a 50 ml conical tube. The sliced spleen was pressed through the strainer using the plunger end of a syringe and the cells were washed through the strainer with excess 4° C. PBS. The cell suspension was centrifuged at 500 g for 5 min at 4° C. The cell pellet was suspended in 2 ml of red blood cell lysing buffer (R7757, Sigma) for 5 min at RT and diluted with 30 ml PBS. The cells were centrifuged at 500 g for 5 min at RT. The cell pellet was suspended in 20 ml of 37° C. DMEM media, mixed well with 10 ml of Percoll density gradient media (17089102, VWR) and centrifuged at 2,500 g for 5 min at RT. The collected cells were seeded in 37° C. RPMI 1640 medium (12633012, Gibco) supplemented with 10% FBS at 5×10^6 cells per ml. Splenocytes were cultured under TH17-polarizing conditions: 3 ng ml^−1 TGF-β (100-21, PeproTech), 40 ng ml^−1 IL-6 (200-06, PeproTech), 30 ng ml^−1 IL-23 (200-23, PeproTech), 20 ng ml^−1 tumour necrosis factor (TNF) (300-01A, PeproTech) and 10 ng ml^−1 IL-1β (200-01B, PeproTech). […]
Because STAT3 is important for TH17 cell differentiation, the inventors evaluated whether the palmitoylation-depalmitoylation cycle of STAT3 promotes the generation of TH17 cells from mouse spleen cells. […]

Data set [2] is described as follows: Tolerability of ML349 in mice. Format: in vivo. Conditions: 50 mg kg^−1, mice. An excerpt:
(§1) The inventors tested whether the pharmacological inhibition of APT2 with ML349 could reduce dextran sulfate sodium (DSS)-induced colitis in mice, an experimental model for IBD.

For data set [3], the system named is DSS-induced colitis in mice. As to the kind of experiment: DSS-induced mouse colitis model. Format: in vivo. Here is the method:
FIGS. 4A-4I. The STAT3 palmitoylation-depalmitoylation cycle aggravates colitis. (A), (B) Human PBMCs from 26 healthy participants (Ctrl), 24 patients with Crohn's disease (CD; 7 remission stage (rem.) and 17 active stage (act.)) and 10 patients with ulcerative colitis (UC; 1 remission stage and 9 active stage) were extracted. LYPLA2 and ZDHHC7 mRNA levels were analysed using qPCR. The relative p-STAT3 levels were quantified by western blots. c, d, The correlations between IL17A (C) or p-STAT3 (D) and the mRNA levels of the indicated genes in 34 patients with IBD. (E), (F), C57BL/6J mice were treated with 2.5% DSS in drinking water ad libitum and ML349 was intraperitoneally injected daily on the day that DSS treatment started. Body weight changes (E) and TH17 cell levels in the spleen (F) were evaluated. (G), (H), Wild-type and DHHC7-knockout mice were treated with 2.5% DSS in drinking water ad libitum. Body weight changes (G) and TH17 cell levels in the spleen (H) were evaluated. (I), Model of the regulation of STAT3 by the palmitoylation-depalmitoylation cycle. Palmitoylation of STAT3 by DHHC7 promotes the membrane recruitment and phosphorylation of STAT3. APT2 promotes the nuclear translocation of p-STAT3 by selectively depalmitoylating p-STAT3 over STAT3. The palmitoylation-depalmitoylation cycle drives the membrane localization and phosphorylation of STAT3, and the nuclear translocation of p-STAT3. The direction of the cycle is ensured by the preference of APT2 for p-STAT3 over STAT3. Data are expressed as the mean±s.e.m. *P<0.05; **P<0.01.
The mouse protocol 2019-0009 was approved by the Institutional Animal Care and Use Committee (IACUC) at Cornell University. All animals were housed under specific-pathogen-free conditions following the regulations of the IACUC. Mice (6-8 weeks old) were randomized into different groups (8 mice per group, mixed sex) as indicated. Colitis was induced by treating with 3.0% DSS (MP Biomedicals) in their drinking water ad libitum. ML349 solution was intraperitoneally injected into the mice at the indicated doses every other day. All mice were euthanized and the spleens were isolated to detect T cells. The distance from caecum to anus was measured. The colon was fixed in 4% paraformaldehyde for pathological examination. The study was not blinded.
as §1

The mark [4] stands for this setting: DSS treatment followed by ML349 treatment, intraperitoneal.
Where [5] appears, read: pretreatment with ML349 followed by treatment with DSS.

Take `COc1ccc(N2CCN(C(=O)c3cc4c(s3)-c3ccccc3S(=O)(=O)C4)CC2)cc1` [ML349]: in data set [1], the “expression of STAT3 target genes (RORC and CCND1)” value is listed as “significantly decreased”. Further, the tolerability result in data set [2] was “well tolerated”. Moreover, in data set [3] (setting [4]), the colon shortening result is on record as “significantly attenuated” and the weight loss entry is reported as “significantly attenuated”. Besides, the “levels of TH17 cells in mouse splenocytes” value in data set [3] (DSS-treated mice, spleen) is “significantly decreased”. In addition, in data set [3] (setting [5]), the survival rate result is reported as “increased the survival rate” and the weight loss result was “significantly attenuated weight loss”.
